Experimental data taken from US20230371508A1, “COMPOSITIONS AND METHODS FOR KILLING INSECT AND NON-INSECT PESTS” (The United States of America, as represented by the …, priority 2018, published 2023).
Values after ≈ are worked out from the molar mass of the structure shown. “Also recorded” adds a separate entry of the source. Like-named read-outs stand apart in the source and are kept apart here.

Key:
D. suzukii = assay: Insecticidal activity on larvae and pupae development and adult emergence in pre-infested blueberries (dip); format: in vivo, Drosophila suzukii; details: for insecticidal toxicity against D. suzukii (in words): 1% concentration on 4 days pre-infested blueberries, 10 days incubation; for Adults / Larvae / Pupae: pre-infested berries soaked 2 min in 1% solution, assessed after 10 days at room temperature, mean of three replicates (standard error)
Experimental: Impacts of MB and other compounds on D. suzukii control: To investigate the acute toxicity of some compounds of formula 1 against D. suzukii, a published procedure was followed (Cuthbertson, A. G. S., et al., Insects, 5: 488-498 (2014)). First, mixed-sex adults D. suzukii (100) were introduced into a plastic cage (30×30×30 cm) and reared on blueberries (100) for 4 days. After that, the infested blueberries were taken out from the cage. Half of the blueberries (50) were dipped in 100 mL aqueous emulsion of each compound listed in Table 1 at 1% concentration for 2 min as treatment, while the other half of the blueberries (50) were dipped in DI water for 2 min as blank control. Then the corresponding blueberries were separately taken out, placed in two different Petri dishes, and allowed to air dry for 2 h. Second, treatment and blank control blueberries were respectively stored in two plastic cups (32 oz) with closed caps and incubated at room temperature for 10 days. The emergence of adults was then subsequently assessed. The developments of larvae and pupae were further inspected by dissection of the treatment and blank control berries. Each treatment and blank control was repeated three times.

S. invicta workers [1] = assay: Fumigant toxicity in sealed glass flask; format: in vivo, Solenopsis invicta; details: for mortality at 1.43 µg/mL / LC50: Solenopsis invicta
Experimental: A 250-ml glass flask (the whole volume is 280 ml) was used to house worker ants in fumigant toxicity bioassays. Two micro-liter of acetone solution of the tested compound was applied onto a paraffin film, which was used to seal the flask with ants. The treated spot of the paraffin film faced the inside of the flask. The upper part of the flask was coated with Fluon® to prevent ants from contacting the test material. Two experiments were conducted. […] LC50 value was established using 5 dosages. Each dosage was replicated 3 times for each of 3 colonies. Each replicate consisted of 15 to 26 ants. Ants that could not stand by themselves were considered dead. Dead ants were counted after 24 h.

H. halys nymphs = assay: Nymphicidal toxicity, treated filter paper in glass vial; format: in vivo
Experimental: Toxicities of MB, some compounds of formula 1, and commercial pesticides on H. halys nymphs: The bioassays were carried out in glass vials (20 mL), following a published procedure (Nielsen, A. L., et al., J. Econ. Entomol., 101: 1439-1442 (2008)). Filter paper was cut into round shape pieces (2.4 cm diameter). 50 μL acetone solution of one derivative or commercial pesticide with different concentrations was loaded onto the filter paper evenly, and the filter paper was dried for 1 min and then put into the bottom of vial. A small piece of green bean was put on the filter paper in the vial as food source. Different stages of H. halys nymphs were introduced into the vial and capped with a cotton ball. For each stage, 30 nymphs were used for each amount. For the nymphs of the first instar, 10 nymphs were put into 1 vial. For the nymphs of the second and third instar, 5 nymphs were put into 1 vial. For the nymphs of the fourth instar, 3 nymphs were put into 1 vial. For the nymphs of the fifth instar, 2 nymphs were put into 1 vial. The mortality was assessed after 24 hr.

S. invicta workers [2] = details: for increase of mean mortality compared with MB / mean mortality: dose 77.9 μg/ant, 24 h; for contact toxicity against S. invicta (in words): in vivo
Experimental: Fire ant bioassays were conducted in USDA, ARS Stoneville laboratory at 25° C., 80% R.H. with a 12:12 (L:D) photoperiod. Contact toxicities of MB and some compounds of formula 1 against fire ants: Topical application was used for contact toxicity bioassay. Only large workers were used for a purpose of relatively uniform body weight and ease of handling. For all compounds, acetone was used as a solvent. The solution was applied using a 0.779 μl capillary tube. Two experiments were conducted for assessing contact toxicity. […] In order to investigate the structure-activity relationship, LD50 values were also established for MB and EB. […] For each LD50 value, 5 doses of benzoates were used. Each dose was replicated 3 times. Each replicate consisted of 13 to 18 ants. Treated ants were placed in a 30-ml capped cup and dead ants were counted after 24 h.

L. dispar larvae = assay: Larvicidal toxicity, treated filter paper in Petri dish; format: in vivo; details: for LC50 (95% CL): 1st stage larvae, 24 hr; for larvicidal toxicity against L. dispar (in words): in vivo
Experimental: Toxicities of MB and some compounds of formula 1 on L. dispar larvae: The bioassays were carried out in plastic Petri dish loaded with filter paper, following a published procedure (Nielsen 2008). 600 μL acetone solution of one derivative with different concentrations was loaded onto the filter paper (90 mm diameter) evenly, and the filter paper was dried for 2 min and then put into the bottom of Petri dish. 10 L. dispar larvae were put onto the Petri dish and covered with a lid. 30 larvae were used for each amount. The mortality was assessed after 24 hr.

H. halys eggs = assay: Ovicidal toxicity, direct spray on eggs; format: in vivo; details: eggs sprayed, 10 days
From the text: (§1) Ovicidal toxicities of MB and some compounds of formula 1: The aqueous solutions of one of the compounds of formula 1 with designated concentrations with different concentrations of active ingredient (AI) were separately stored in glass spray bottles according to a published procedure (Cuthbertson 2014). The eggs (10 for H. halys and 100 for P. xylostella) were laid on filter papers in Petri dishes. Different aqueous insecticidal solutions were sprayed on the surfaces of different eggs three times (˜0.5 mL) to completely cover the treatment areas. Then the Petri dishes were covered with lids and maintained in a fume hood for 10 days. The Petri dishes were then inspected for presence of nymph/larvae development or numbers of unhatched eggs.

Plutella xylostella eggs = assay: Ovicidal toxicity, direct spray on eggs; format: in vivo; details: hatchability after 10 days; 0.05% and 0.1% concentrations (FIG. 3)
From the text: as §1

[3] = 24 h, read-out: mean mortality, dosage 1.43 μg/ml, 24 h

Row | Compound | insecticidal toxicity against D. suzukii (in words) (D. suzukii) | Adults (D. suzukii) | Larvae (D. suzukii) | Pupae (D. suzukii) | mortality at 1.43 µg/mL (S. invicta workers [1]; [3]) [%] | LC50 (95% CL) (H. halys nymphs; 3rd stage nymphs, 24 hr) | LD50 (S. invicta workers [2]; colony 1, 24 h) [μg/ant] | LD50 (S. invicta workers [2]; colony 2, 24 h) [μg/ant] | LC50 (95% CL) (L. dispar larvae) | LC50 (95% CL) (H. halys eggs) | toxicity against H. halys nymphs (in words) (H. halys nymphs; in vivo) | LD50 (S. invicta workers [2]; colony 3, 24 h) [μg/ant] | also measured
1 | CCCOC(=O)c1ccccc1 [nPrB, n-propyl benzoate] | good insecticidal toxicity | 3.0(0.6) | 1.7(0.3) | 4.0(0.6) | 79.4 | 2.591 (2.086-3.839) μL/vial | 109.89 | 109.26 | 0.159 (0.135-0.199) mg/cm^2 | – | – | – | increase of mean mortality compared with MB (S. invicta workers [2]): 6 times; mean mortality (S. invicta workers [2]): 45.5%
2 | COC(=O)c1ccccc1C [M2MB, methyl 2-methylbenzoate] | – | 0 | 0 | 0 | 70 to 80 | – | – | – | 0.155 (0.134-0.174) mg/cm^2 | 0.014 (0.005-0.027) mg/cm^2 | – | – | fumigant toxicity against S. invicta (in words) (S. invicta workers [1]; in vivo): significantly reduced; LC50 (95% CL) (H. halys nymphs; 2nd stage nymphs, 24 hr): 0.974 (0.827-1.109) μL/vial
3 | O=C(OCc1ccccc1)c1ccccc1 [BB, benzyl benzoate] | poor toxicities | 40.0(8.4) | 5.7(0.7) | 40.0(5.8) | – | – | – | – | – | – | deficient toxicities | – | LC50 (95% CL) (H. halys nymphs; in vivo): 5.619 (3.028-44.599) μL/vial; contact toxicity against S. invicta (in words) (S. invicta workers [2]): potent contact toxicities; larvicidal toxicity against L. dispar (in words) (L. dispar larvae): did not show any toxicities
4 | CC(COc1ccc(Oc2ccccc2)cc1)Oc1ccccn1 (centres unmarked) [PF, pyriproxyfen, reference compound] | – | – | – | – | – | 1.798 (1.397-2.797) μL/vial | – | – | 0.086 (0.057-0.124) mg/cm^2 | – | – | – | LC50 (95% CL) (H. halys nymphs; 5th stage nymphs, 24 hr): 2.700 (1.881-4.836) μL/vial; LC50 (95% CL) (L. dispar larvae; listed as pyriproxyfen): 0.086 mg/cm^2
5 | CCOC(=O)c1ccccc1 [EB, ethyl benzoate] | – | 0 | 0 | 0 | – | 1.604 (1.468-1.756) μL/vial | 164.32 | 129.62 | 0.115 (0.107-0.123) mg/cm^2 | 0.014 (0.010-0.019) mg/cm^2 | – | 126.53 | LC50 (S. invicta workers [1]; 24 h, colony 1, 24 h, read-out: LC50): 0.89 µg/mL (≈ 5.93 µM); LC50 (S. invicta workers [1]; 24 h, colony 2, 24 h, read-out: LC50): 0.76 µg/mL (≈ 5.06 µM); LC50 (S. invicta workers [1]; 24 h, colony 3, 24 h, read-out: LC50): 1.14 µg/mL (≈ 7.59 µM); mortality at 1.43 µg/mL (S. invicta workers [1]; 24 h, dosage 1.43 μg/ml, 24 h, read-out: mean mortality): ~100%; LC50 (S. invicta workers [1]; 24 h, mean over colonies, 24 h, read-out: mean LC50 value): 0.93 µg/mL (≈ 6.19 µM)
6 | COC(=O)c1ccccc1Cl [M2CB, methyl 2-chlorobenzoate] | – | 0 | 0 | 0 | 70 to 80 | – | – | – | 0.130 (0.097-0.159) mg/cm^2 | 0.011 (0.008-0.013) mg/cm^2 | – | – | LC50 (S. invicta workers [1]; 24 h, colony 1, 24 h): 0.89 µg/mL (≈ 5.22 µM); LC50 (S. invicta workers [1]; 24 h, colony 2, 24 h): 0.77 µg/mL (≈ 4.51 µM); LC50 (S. invicta workers [1]; 24 h, colony 3, 24 h): 0.56 µg/mL (≈ 3.28 µM); mean mortality (S. invicta workers [1]; dosage 1.43 μg/ml, 24 h): 79.4%; LC50 (95% CL) (H. halys nymphs; 2nd stage nymphs, 24 hr): 1.302 (1.137-1.610) μL/vial
7 | CC(C)COC(=O)c1ccccc1 [iBB, iso-butyl benzoate] | poor toxicities | 24.7(0.9) | 6.0(1.5) | 15.7(1.9) | – | 4.890 (2.845-24.779) μL/vial | 80.07 | 96.57 | 0.193 (0.165-0.234) mg/cm^2 | – | deficient toxicities | 55.75 | –
8 | COC(=O)c1ccccc1[N+](=O)[O-] [M2NB, methyl 2-nitrobenzoate] | – | 0 | 0 | 0 | 0 | – | – | – | – | 0.010 (0.002-0.019) mg/cm^2 | ineffective | – | larvicidal toxicity against L. dispar (in words) (L. dispar larvae): did not show any toxicities
9 | CCCCCOC(=O)c1ccccc1 [nPeB, n-pentyl benzoate] | did not show any insecticidal activities | 36.3(3.9) | 5.3(0.9) | 37.7(6.7) | – | – | 35.97 | 41.16 | 0.165 (0.118-0.208) mg/cm^2 | – | did not show toxicities | 28.64 | increase of mean mortality compared with MB (S. invicta workers [2]): 13 times; mean mortality (S. invicta workers [2]): 99.26%; contact toxicity against S. invicta (in words) (S. invicta workers [2]): comparable results; also recorded: potent contact toxicities; ovicidal toxicity against P. xylostella eggs (in words) (Plutella xylostella eggs): comparable toxicity comparing with MB
10 | CCCCOC(=O)c1ccccc1 [nBB, n-butyl benzoate] | – | 25.3(1.5) | 4.7(1.2) | 15.0(2.9) | 2.34 | – | 77.13 | 68.51 | 0.276 (0.223-0.393) mg/cm^2 | – | – | 50.04 | decrease of mean mortality compared with MB (S. invicta workers [1]; dosage 1.43 μg/ml, 24 h): 42 times; LC50 (95% CL) (H. halys nymphs; 4th stage nymphs, 24 hr): 3.370 (2.441-6.922) μL/vial; contact toxicity against S. invicta (in words) (S. invicta workers [2]): comparable results; also recorded: potent contact toxicities
11 | C/C(=N\C#N)N(C)Cc1ccc(Cl)nc1 [AP, acetamiprid, reference compound] | – | – | – | – | – | 0.475 (0.301-0.641) μL/vial | – | – | 0.221 (0.167-0.291) mg/cm^2 | – | – | – | LC50 (95% CL) (H. halys nymphs; 2nd stage nymphs, 24 hr): 0.257 (0.169-0.340) μL/vial; LC50 (95% CL) (H. halys nymphs; 5th stage nymphs, 24 hr): 1.414 (1.165-1.642) μL/vial; LC50 (95% CL) (L. dispar larvae; listed as acetamiprid): 0.221 mg/cm^2
12 | COC(=O)c1cccc(C)c1 [M3MB, methyl 3-methylbenzoate] | – | 0 | 0 | 0 | ~100 | – | 70.32 | 107.48 | 0.102 (0.083-0.121) mg/cm^2 | 0.016 (0.009-0.024) mg/cm^2 | – | 67.73 | LC50 (S. invicta workers [1]; 24 h, colony 1, 24 h): 0.62 µg/mL (≈ 4.13 µM); LC50 (S. invicta workers [1]; 24 h, colony 2, 24 h): 0.7 µg/mL (≈ 4.66 µM); LC50 (S. invicta workers [1]; 24 h, colony 3, 24 h): 0.63 µg/mL (≈ 4.2 µM); LC50 (S. invicta workers [1]; 24 h, read-out: mean LC50 value, mean over colonies, 24 h): 0.65 µg/mL (≈ 4.33 µM); LC50 (95% CL) (H. halys nymphs; 4th stage nymphs, 24 hr): 2.433 (2.000-3.417) μL/vial
